According to patent US11279733B2, “Peptide antibiotics” (priority 2017, dated 2022):
Values after ≈ are worked out from the molar mass of the structure shown. Where two headings read alike, the source gives them in different places. Positions of bridges follow the written chain, without caps; N, C: chain ends. Non-standard residues stand in square brackets, D forms with d. Residues, ends and D or L forms follow the SMILES beside them. *: point of attachment. Decanoyl(3R-OH) = CCCCCCC[C@@H](O)CC(=O)*; Phe(4-NH2) = Nc1ccc(C[C@H](N)C(=O)O)cc1; dDab = NCC[C@@H](N)C(=O)O; Dab = NCC[C@H](N)C(=O)O

Assays:
[1] = In vitro nephrotoxicity, GGT release from primary human kidney cells; assay type: cell-based; conditions: pH 7.4
Excerpt: (§1) hPT cells were derived from whole human kidneys procured by the International Institute for the Advancement of Medicine (Edison, N.J., USA). All tissue was scored by a pathologist as normal (i.e., derived from non-cancerous, non-diseased tissue). Cell isolation procedures were based on those originally described by Todd et al. (1996) and modified (Cummings and Lash, 2000; Cummings et al., 2000) with use of sterile conditions (i.e., all instruments and glassware were autoclaved and all buffers were filtered through a 0.2-μm pore-size filter). Renal cortex and outer stripe were cut into slices, washed with sterile PBS, minced, and the pieces were placed in a trypsinization flask filled with 300 ml of sterile, filtered Hanks' buffer, containing 25 mM NaHCO3, 25 mM HEPES, pH 7.4, 0.5 mM EGTA, 0.2% (w/v) bovine serum albumin, 50 μg/ml gentamicin, 1.3 mg/mL collagenase, and 0.59 mg/ml CaCl2), which was filtered prior to use. Whole kidneys were perfused with Wisconsin medium and kept on ice until they arrived at the laboratory, which was usually within 24 h of removal from the donor.
(§2) All buffers were continuously bubbled with 95% O2/5% CO2 and were maintained at 37° C. Minced cortical pieces from whole kidneys were subjected to collagenase digestion for 60 min, after which the supernatant was filtered through a 70-μm mesh filter to remove tissue fragments, centrifuged at 150×g for 7 min, and the pellet resuspended in Dulbecco's Modified Eagle's Medium: Ham's F12 Medium (DMEM/F12; 1/1). Approximately 5 to 7×10^6 cells were obtained per 1 g of human kidney cortical tissue.
(§3) hPT cells were resuspended in 2 mL of DMEM/F12 and diluted to 500 mL with cell culture medium, which was serum-free and hormonally-defined. Composition of this supplemented medium was based on earlier work establishing optimal conditions for primary culture of rat PT cells (Lash et al., 1995). Basal medium was a 1:1 mixture of DMEM/F12. […] Cells were seeded in a volume of 0.5 ml at a density of 50-100 μg protein per cm^2 (0.5-1.0×10^6 cells/ml) on 24-well plates. Cultures were grown at 37° C. in a humidified incubator under an atmosphere of 95% air/5% CO2 at pH 7.4. Cultures were grown to approximately 80%-90% confluence (generally 5-6 days) prior to experiments. Cells were harvested by either scraping the flasks with a Teflon scraper or by brief incubation with Cellstripper (Cellgro, Herndon, Va., USA) (in Ca^2+- and Mg^2+-free Hanks' buffer).
Release of gamm-glutanyltransferase was assessed according to Orlowski, M., Meister, A. 1963. γ-Glutamyl-p-nitroanilide: A new convenient substrate for determination and study of L- and D-γ-glutamyltranspeptidase activities (Biochim. Biophys. Acta 73: 679-681.)
A 2.5 mM substrate Solution was prepared from 67 mg γ-glutamyl-p-nitroanilide+264 mg glycylglycine in 100 mL of 0.05 M Tris, pH 8.2 (50 mM Tris, pH 8.2: 605 mg Tris/HCl per 100 mL).
For the assay in 96-well plates, 6-μL of sample and 0.3 mL substrate solution were added to each well. The absorbance was measured at 410 nm for the appearance of product, p-nitroanilide (molar extinction=8800 M^−1 cm^−1).

[2] = In vitro nephrotoxicity, LDH release from primary human kidney cells; assay type: cell-based; conditions: pH 7.4
Excerpt: as §1, §2, §3

[3] = in vitro; conditions: human
Summary of the method: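 HK2 cells were seeded at 2000 per well in DMEM/F12 with 10% FBS and left to attach for 24 h at 37 °C, 5% CO2. They were then exposed for 24 h to 3-fold peptide dilutions starting from 600 μM solutions in quadruplicate. LDH release was read at 450 nm, and CC50 was fitted from dose-response curves.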

[4] = test system: E. coli ATCC 25922; conditions: ATCC 25922
Summary of the method: (§4)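 Mid-log cultures grown in Mueller Hinton broth at 37° C were tested by 2-fold broth microdilution at 5×10^5 CFU/mL final. Compounds were dissolved in water and tested over a final range of 32 to 0.015 μg/mL.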

[5] = test system: K. pneumoniae ATCC BAA-2146, NDM-1 pos; conditions: ATCC BAA-2146
Summary of the method: as §4

[6] = test system: P. aeruginosa ATCC 27853; conditions: ATCC 27853
Summary of the method: as §4

[7] = test system: P. aeruginosa GN_043, PmxR
Summary of the method: as §4

[8] = test system: A. baumannii ATCC 19606; conditions: ATCC 19606
Summary of the method: as §4

[9] = test system: K. pneumoniae ATCC 13883; conditions: ATCC 13883
Summary of the method: as §4

[10] = test system: K. pneumoniae GN_106, PmxR; conditions: GN 106, PmxR
Summary of the method: as §4

[11] = test system: K. pneumoniae GN_102 PmxR; conditions: GN 102 PmxR
Summary of the method: as §4

[12] = test system: A. baumannii GN_093 PmxR; conditions: GN 093 PmxR
Summary of the method: as §4

[13] = test system: S. aureus ATCC 25923, MSSA; conditions: ATCC 25923
Summary of the method: as §4

[14] = test system: K. pneumoniae ATCC 700603, MDR; conditions: ATCC 700603
Summary of the method: as §4

[15] = test system: P. aeruginosa GN_105, PmxR; conditions: GN 105, PmxR
Summary of the method: as §4

[16] = in vitro; conditions: human; remark: listed apart in the source
Summary of the method: (§5)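 Compound exposure lasted 24 h, following 24 h attachment of 4000 cells/well at 37° C under 5% CO2.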

[17] = in vitro; conditions: human; remark: listed apart in the source
Summary of the method: as §5

## CCCCCCC[C@@H](O)CC(=O)N[C@H](CCN)C(=O)N[C@H]1CCNC(=O)[C@H](CC(C)C)NC(=O)[C@H](CCN)NC(=O)[C@H](CCN)NC(=O)[C@H](CC(C)C)NC(=O)[C@@H](Cc2ccccc2)NC(=O)[C@H](CCN)NC1=O [Octapeptin C4, octapeptin C4, reference compound] ({Decanoyl(3R-OH)}-[dDab][Dab][Dab][dF]L[Dab][Dab]L; lactam 2-C)
[1]
  CC50: > 128 µg/mL
[2]
  CC50: 62 µg/mL (≈ 59.4 µM)

## CCCCCCC[C@@H](O)CC(=O)N[C@H](CCN)C(=O)N[C@H]1CCNC(=O)[C@H](CC(C)C)NC(=O)[C@H](CCNC(=O)[C@@H](N)CCCNC(=N)N)NC(=O)[C@H](CCN)NC(=O)[C@H](CC(C)C)NC(=O)[C@@H](Cc2ccccc2)NC(=O)[C@H](CCN)NC1=O [compound 6653, 3(R)OH-nC9CO-D-Dab-cyc[L-Dab-L-Dab-D-Phe-L-Leu-L-Dab-L-Dab(L-Arg)-L-Leu]] ({Decanoyl(3R-OH)}-[dDab][Dab][Dab][dF]L[Dab][Dab](Arg)L; lactam 2-C)
[3]
  CC50 at 24 h: 64 µM
[4]
  MIC E. coli ATCC 25922: 16 µg/mL (≈ 13.3 µM)
[5]
  MIC K. pneumoniae ATCC BAA-2146, NDM-1 pos: 8 µg/mL (≈ 6.66 µM)
[6]
  MIC P. aeruginosa ATCC 27853: 4 µg/mL (≈ 3.33 µM)
[7]; polymyxin-resistant
  MIC P. aeruginosa GN_043, PmxR: 2 µg/mL (≈ 1.67 µM)
[8]
  MIC A. baumannii ATCC 19606: 4 µg/mL (≈ 3.33 µM)
[9]
  MIC K. pneumoniae ATCC 13883: 8 µg/mL (≈ 6.66 µM)
[10]
  MIC K. pneumoniae GN_106, PmxR: 16 µg/mL (≈ 13.3 µM)
[11]
  MIC K. pneumoniae GN_102 PmxR: >32 µg/mL
[12]
  MIC A. baumannii GN_093 PmxR: 16 µg/mL (≈ 13.3 µM)
[13]
  MIC S. aureus ATCC 25923, MSSA: 32 µg/mL (≈ 26.7 µM)
[14]
  MIC K. pneumoniae ATCC 700603, MDR: 8 µg/mL (≈ 6.66 µM)
[15]
  MIC P. aeruginosa GN_105, PmxR: 4 µg/mL (≈ 3.33 µM)
[16]
  CC50 at 24 h: > 300 µM
[17]
  CC50 at 24 h: > 300 µM

## CCCCCCC[C@@H](O)CC(=O)N[C@@H](CCN)C(=O)N[C@@H]1CCNC(=O)[C@H](CC(C)C)NC(=O)[C@H](CCN)NC(=O)[C@H](CCN)NC(=O)[C@H](CC(C)C)NC(=O)[C@@H](Cc2ccccc2)NC(=O)[C@H](CCN)NC1=O [compound 6658, 3(R)OH-nC9CO-L-Dab-cyc[D-Dab-L-Dab-D-Phe-L-Leu-L-Dab-L-Dab-L-Leu]] ({Decanoyl(3R-OH)}-[Dab][dDab][Dab][dF]L[Dab][Dab]L; lactam 2-C)
[3]
  CC50 at 24 h: > 300 µM
[4]
  MIC E. coli ATCC 25922: >32 µg/mL
[5]
  MIC K. pneumoniae ATCC BAA-2146, NDM-1 pos: >32 µg/mL
[6]
  MIC P. aeruginosa ATCC 27853: 32 µg/mL (≈ 30.6 µM)
[7]; P. aeruginosa GN_043, PmxR
  MIC P. aeruginosa GN_043, PmxR: >32 µg/mL
[8]
  MIC A. baumannii ATCC 19606: >32 µg/mL
[9]
  MIC K. pneumoniae ATCC 13883: >32 µg/mL
[10]
  MIC K. pneumoniae GN_106, PmxR: >32 µg/mL
[11]
  MIC K. pneumoniae GN_102 PmxR: >32 µg/mL
[12]
  MIC A. baumannii GN_093 PmxR: >32 µg/mL
[13]
  MIC S. aureus ATCC 25923, MSSA: >32 µg/mL
[14]
  MIC K. pneumoniae ATCC 700603, MDR: >32 µg/mL
[15]
  MIC P. aeruginosa GN_105, PmxR: >32 µg/mL
[16]
  CC50 at 24 h: > 300 µM
[17]
  CC50 at 24 h: > 300 µM

## CCCCCCC[C@@H](O)CC(=O)N[C@@H](CCN)C(=O)N[C@@H]1CCNC(=O)[C@H](CC(C)C)NC(=O)[C@H](CCN)NC(=O)[C@H](CCN)NC(=O)[C@H](C)NC(=O)[C@@H](Cc2ccccc2)NC(=O)[C@H](CCN)NC1=O [compound 6660, 3(R)OH-nC9CO-L-Dab-cyc[D-Dab-L-Dab-D-Phe-L-Ala-L-Dab-L-Dab-L-Leu]] ({Decanoyl(3R-OH)}-[Dab][dDab][Dab][dF]A[Dab][Dab]L; lactam 2-C)
[3]
  CC50 at 24 h: > 300 µM
[4]
  MIC E. coli ATCC 25922: >32 µg/mL
[5]
  MIC K. pneumoniae ATCC BAA-2146, NDM-1 pos: >32 µg/mL
[6]
  MIC P. aeruginosa ATCC 27853: >32 µg/mL
[7]; P. aeruginosa GN_043, PmxR
  MIC P. aeruginosa GN_043, PmxR: >32 µg/mL
[8]
  MIC A. baumannii ATCC 19606: >32 µg/mL
[9]
  MIC K. pneumoniae ATCC 13883: >32 µg/mL
[10]
  MIC K. pneumoniae GN_106, PmxR: >32 µg/mL
[11]
  MIC K. pneumoniae GN_102 PmxR: >32 µg/mL
[12]
  MIC A. baumannii GN_093 PmxR: >32 µg/mL
[13]
  MIC S. aureus ATCC 25923, MSSA: >32 µg/mL
[14]
  MIC K. pneumoniae ATCC 700603, MDR: >32 µg/mL
[15]
  MIC P. aeruginosa GN_105, PmxR: >32 µg/mL
[16]
  CC50 at 24 h: > 300 µM
[17]
  CC50 at 24 h: > 300 µM

## CCCCCCC[C@@H](O)CC(=O)N[C@H](CCN)C(=O)N[C@H]1CCNC(=O)[C@H](CC(C)C)NC(=O)[C@H](CCN)NC(=O)[C@H](CCN)NC(=O)[C@H](CC(C)C)NC(=O)[C@@H](Cc2ccccc2)NC(=O)[C@H](Cc2ccc(N)cc2)NC1=O [compound 8635, 3(R)OH-nC9CO-D-Dab-cyc[L-Dab-L-4NH2Phe-D-Phe-L-Leu-L-Dab-L-Dab-L-Leu]] ({Decanoyl(3R-OH)}-[dDab][Dab][Phe(4-NH2)][dF]L[Dab][Dab]L; lactam 2-C)
[3]
  CC50 at 24 h: 219 µM
[4]
  MIC, E. coli ATCC 25922: 16 µg/mL (≈ 14.5 µM)
[5]
  MIC, K. pneumoniae ATCC BAA-2146, NDM-1 pos: 16 µg/mL (≈ 14.5 µM)
[6]
  MIC, P. aeruginosa ATCC 27853: 16 µg/mL (≈ 14.5 µM)
[7]; Table 5, polymyxin-resistant
  MIC, P. aeruginosa FADDI-PA070, PmxR: 16 µg/mL (≈ 14.5 µM)
[8]
  MIC, A. baumannii ATCC 19606: >32 µg/mL
[9]
  MIC, K. pneumoniae ATCC 13883: >32 µg/mL
[10]
  MIC, K. pneumoniae Cl 138-16347-20362, PmxR: >32 µg/mL
[11]
  MIC, K. pneumoniae Cl Koprana 10065 0661:1, PmxR: >32 µg/mL
[12]
  MIC, A. baumannii Cl Ptyela 10073 4512:2, PmxR: >32 µg/mL
[13]
  MIC, S. Aureus ATCC 25923, MSSA: 32 µg/mL (≈ 28.9 µM)
[14]
  MIC, K. pneumoniae ATCC 700603, MDR: 32 µg/mL (≈ 28.9 µM)
[15]
  MIC, P. aeruginosa PA9704, PmxR: >32 µg/mL
[16]
  CC50 at 24 h: > 300 µM
[17]
  CC50 at 24 h: > 300 µM
